# From ChEMBL document CHEMBL3885861, “Open TG-GATES”
# Species: Rattus norvegicus
# Test: Open TG-GATES - Regimen: Daily Repeat
# Type: toxicity, organism-based, Sprague-Dawley
# Parameters: regimen Daily Repeat, gender Male, age 6 weeks
# Details: in vivo, po, 0 mg/kg, route gavage, dose level Control; for APTT / Bas / Eos / Fbg / Hb / Ht / Lym / MCH / MCHC / MCV / Mono / Neu / PT / Plat / RBC / Ret / WBC: tissue Blood; for KIDNEY_L / KIDNEY_R / KIDNEY_TOTAL: tissue Kidney; for LIVER: tissue Liver; for A/G / ALP / ALT / AST / BUN / CRE / Ca / Cl / DBIL / GLC / IP / K / LDH / Na / PL / RALB / TBIL / TC / TG / TP / gamma-GTP: tissue Plasma
structure (smiles),measurement,setting,value
CC[C@@H](CO)NCCN[C@@H](CC)CO [ETHAMBUTOL],TERMINAL_BW,"72 h, time 3 day",245.1 g
same,APTT,"72 h, time 3 day",21.9 s
same,Bas,"72 h, time 3 day",0%
same,Eos,"72 h, time 3 day",1%
same,Fbg,"72 h, time 3 day",308.2 mg/dL
same,Hb,"72 h, time 3 day",13.6 g/dL
same,Ht,"72 h, time 3 day",38.8%
same,Lym,"72 h, time 3 day",80.6%
same,MCH,"72 h, time 3 day",21.9 pg
same,MCHC,"72 h, time 3 day",34.9%
same,MCV,"72 h, time 3 day",62.6 fL
same,Mono,"72 h, time 3 day",3.2%
same,Neu,"72 h, time 3 day",13.8%
same,PT,"72 h, time 3 day",16.1 s
same,Plat,"72 h, time 3 day",127.2 x10_4/uL
same,RBC,"72 h, time 3 day",619.8 x10_4/ul
same,Ret,"72 h, time 3 day",6.5%
same,WBC,"72 h, time 3 day",109.6 x10_2/uL
same,KIDNEY_L,"72 h, time 3 day",1.1 g
same,KIDNEY_R,"72 h, time 3 day",1.1 g
same,KIDNEY_TOTAL,"72 h, time 3 day",2.2 g
same,LIVER,"72 h, time 3 day",11.5 g
same,A/G,"72 h, time 3 day",1.1
same,ALP,"72 h, time 3 day",1450 IU/L
same,ALT,"72 h, time 3 day",45.4 IU/L
same,AST,"72 h, time 3 day",68.6 IU/L
same,BUN,"72 h, time 3 day",19.2 mg/dL
same,CRE,"72 h, time 3 day",0.2 mg/dL
same,Ca,"72 h, time 3 day",10.9 mg/dL
same,Cl,"72 h, time 3 day",107 meq/L
same,DBIL,"72 h, time 3 day",0 mg/dL
same,GLC,"72 h, time 3 day",194.6 mg/dL
same,IP,"72 h, time 3 day",7.6 mg/dL
same,K,"72 h, time 3 day",4.4 meq/L
same,LDH,"72 h, time 3 day",172.4 IU/L
same,Na,"72 h, time 3 day",140.2 meq/L
same,PL,"72 h, time 3 day",155.6 mg/dL
same,RALB,"72 h, time 3 day",3 g/dL
same,TBIL,"72 h, time 3 day",0.004 mg/dL
same,TC,"72 h, time 3 day",78.4 mg/dL
same,TG,"72 h, time 3 day",123.2 mg/dL
same,TP,"72 h, time 3 day",5.7 g/dL
same,gamma-GTP,"72 h, time 3 day",1.4 IU/L
same,TERMINAL_BW,"[…], time 7 day",267.6 g
same,TERMINAL_BW,"[…], time 14 day",330.7 g
same,TERMINAL_BW,"[…], time 28 day",391.8 g
same,APTT,"[…], time 7 day",23.2 s
same,Bas,"[…], time 7 day",0%
same,Eos,"[…], time 7 day",1%
same,Fbg,"[…], time 7 day",338.4 mg/dL
same,Hb,"[…], time 7 day",14.1 g/dL
same,Ht,"[…], time 7 day",41.1%
same,Lym,"[…], time 7 day",83%
same,MCH,"[…], time 7 day",21.1 pg
same,MCHC,"[…], time 7 day",34.3%
same,MCV,"[…], time 7 day",61.4 fL
same,Mono,"[…], time 7 day",2.2%
same,Neu,"[…], time 7 day",12.8%
same,PT,"[…], time 7 day",15.4 s
same,Plat,"[…], time 7 day",110.1 x10_4/uL
same,RBC,"[…], time 7 day",671 x10_4/ul
same,Ret,"[…], time 7 day",5.1%
same,WBC,"[…], time 7 day",113 x10_2/uL
same,APTT,"[…], time 14 day",21.6 s
same,Bas,"[…], time 14 day",0%
same,Eos,"[…], time 14 day",0.8%
same,Fbg,"[…], time 14 day",321.6 mg/dL
same,Hb,"[…], time 14 day",14.4 g/dL
same,Ht,"[…], time 14 day",42.1%
same,Lym,"[…], time 14 day",80%
same,MCH,"[…], time 14 day",20.5 pg
same,MCHC,"[…], time 14 day",34.2%
same,MCV,"[…], time 14 day",60.1 fL
same,Mono,"[…], time 14 day",2.4%
same,Neu,"[…], time 14 day",15%
same,PT,"[…], time 14 day",16.3 s
same,Plat,"[…], time 14 day",103.5 x10_4/uL
same,RBC,"[…], time 14 day",701.6 x10_4/ul
same,Ret,"[…], time 14 day",4.4%
same,WBC,"[…], time 14 day",116.4 x10_2/uL
same,APTT,"[…], time 28 day",26.2 s
same,Bas,"[…], time 28 day",0%
same,Eos,"[…], time 28 day",1.2%
same,Fbg,"[…], time 28 day",315.8 mg/dL
same,Hb,"[…], time 28 day",14.7 g/dL
same,Ht,"[…], time 28 day",42.6%
same,Lym,"[…], time 28 day",83.4%
same,MCH,"[…], time 28 day",19.3 pg
same,MCHC,"[…], time 28 day",34.4%
same,MCV,"[…], time 28 day",56 fL
same,Mono,"[…], time 28 day",2.6%
same,Neu,"[…], time 28 day",11.4%
same,PT,"[…], time 28 day",15.6 s
same,Plat,"[…], time 28 day",106 x10_4/uL
same,RBC,"[…], time 28 day",761.2 x10_4/ul
same,Ret,"[…], time 28 day",3.1%
same,WBC,"[…], time 28 day",131.5 x10_2/uL
same,KIDNEY_L,"[…], time 7 day",1.1 g
same,KIDNEY_R,"[…], time 7 day",1.1 g
same,KIDNEY_TOTAL,"[…], time 7 day",2.2 g
same,KIDNEY_L,"[…], time 14 day",1.3 g
same,KIDNEY_R,"[…], time 14 day",1.3 g
same,KIDNEY_TOTAL,"[…], time 14 day",2.6 g
same,KIDNEY_L,"[…], time 28 day",1.4 g
same,KIDNEY_R,"[…], time 28 day",1.4 g
same,KIDNEY_TOTAL,"[…], time 28 day",2.8 g
same,LIVER,"[…], time 7 day",12.3 g
same,LIVER,"[…], time 14 day",14.5 g
same,LIVER,"[…], time 28 day",16.5 g
same,A/G,"[…], time 7 day",1.1
same,ALP,"[…], time 7 day",1523.4 IU/L
same,ALT,"[…], time 7 day",43 IU/L
same,AST,"[…], time 7 day",69.6 IU/L
same,BUN,"[…], time 7 day",17.8 mg/dL
same,CRE,"[…], time 7 day",0.2 mg/dL
same,Ca,"[…], time 7 day",10.5 mg/dL
same,Cl,"[…], time 7 day",106.8 meq/L
same,DBIL,"[…], time 7 day",0 mg/dL
same,GLC,"[…], time 7 day",198 mg/dL
same,IP,"[…], time 7 day",7.3 mg/dL
same,K,"[…], time 7 day",4.1 meq/L
same,LDH,"[…], time 7 day",200.2 IU/L
same,Na,"[…], time 7 day",142.2 meq/L
same,PL,"[…], time 7 day",147.6 mg/dL
same,RALB,"[…], time 7 day",3 g/dL
same,TBIL,"[…], time 7 day",0.006 mg/dL
same,TC,"[…], time 7 day",75.4 mg/dL
same,TG,"[…], time 7 day",91.6 mg/dL
same,TP,"[…], time 7 day",5.6 g/dL
same,gamma-GTP,"[…], time 7 day",1.8 IU/L
same,A/G,"[…], time 14 day",1.2
same,ALP,"[…], time 14 day",1341.2 IU/L
same,ALT,"[…], time 14 day",41 IU/L
same,AST,"[…], time 14 day",72.6 IU/L
same,BUN,"[…], time 14 day",19.6 mg/dL
same,CRE,"[…], time 14 day",0.2 mg/dL
same,Ca,"[…], time 14 day",10.5 mg/dL
same,Cl,"[…], time 14 day",106.4 meq/L
same,DBIL,"[…], time 14 day",0 mg/dL
same,GLC,"[…], time 14 day",196.6 mg/dL
same,IP,"[…], time 14 day",7.2 mg/dL
same,K,"[…], time 14 day",4 meq/L
same,LDH,"[…], time 14 day",191.2 IU/L
same,Na,"[…], time 14 day",141.6 meq/L
same,PL,"[…], time 14 day",139.6 mg/dL
same,RALB,"[…], time 14 day",3 g/dL
same,TBIL,"[…], time 14 day",0 mg/dL
same,TC,"[…], time 14 day",64.2 mg/dL
same,TG,"[…], time 14 day",116.4 mg/dL
same,TP,"[…], time 14 day",5.7 g/dL
same,gamma-GTP,"[…], time 14 day",1.6 IU/L
same,A/G,"[…], time 28 day",1
same,ALP,"[…], time 28 day",977.2 IU/L
same,ALT,"[…], time 28 day",41 IU/L
same,AST,"[…], time 28 day",67 IU/L
same,BUN,"[…], time 28 day",19.4 mg/dL
same,CRE,"[…], time 28 day",0.3 mg/dL
same,Ca,"[…], time 28 day",10.3 mg/dL
same,Cl,"[…], time 28 day",105.8 meq/L
same,DBIL,"[…], time 28 day",0 mg/dL
same,GLC,"[…], time 28 day",208 mg/dL
same,IP,"[…], time 28 day",6.8 mg/dL
same,K,"[…], time 28 day",4.1 meq/L
same,LDH,"[…], time 28 day",156 IU/L
same,Na,"[…], time 28 day",142.2 meq/L
same,PL,"[…], time 28 day",143.6 mg/dL
same,RALB,"[…], time 28 day",3.1 g/dL
same,TBIL,"[…], time 28 day",0.008 mg/dL
same,TC,"[…], time 28 day",72.8 mg/dL
same,TG,"[…], time 28 day",100.8 mg/dL
same,TP,"[…], time 28 day",6.2 g/dL
same,gamma-GTP,"[…], time 28 day",2.4 IU/L
